In publication PMC3761942 (Bioorganic & medicinal chemistry, 2013):
Entries after “also recorded” stand apart in the source; their conditions may differ. Blank lines part the entries; values can stand above or below the compound they belong to.

Columns and labels:
[1] = Chemical stability in aqueous medium; assay type: physicochemical
[2] = target: T1, guanase from rabbit liver (Oryctolagus cuniculus, UniProt G1T386); assay type: biochemical
T1 sequence (G1T386 1-454): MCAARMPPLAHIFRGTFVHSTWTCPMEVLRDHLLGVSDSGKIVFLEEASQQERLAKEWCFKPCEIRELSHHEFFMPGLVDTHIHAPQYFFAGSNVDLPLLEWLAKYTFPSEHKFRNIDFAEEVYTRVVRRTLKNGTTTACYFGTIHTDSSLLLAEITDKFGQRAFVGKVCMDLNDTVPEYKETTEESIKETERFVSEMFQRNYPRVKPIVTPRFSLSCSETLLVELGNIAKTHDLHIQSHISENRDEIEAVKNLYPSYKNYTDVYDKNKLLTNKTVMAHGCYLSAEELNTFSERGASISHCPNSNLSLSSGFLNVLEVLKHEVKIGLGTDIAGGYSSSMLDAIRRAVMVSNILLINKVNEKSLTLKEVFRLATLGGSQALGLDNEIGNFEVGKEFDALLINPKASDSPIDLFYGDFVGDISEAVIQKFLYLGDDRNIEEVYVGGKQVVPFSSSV

[3] = target: guanase; settings: in tissue cultures; cited from earlier work

Stability in aqueous acidic environment ([1]; aqueous acidic environment (1N HCl)): reasonably stable
Structure (SMILES): O=C1NCC(O)Nc2c1ncn2Cc1ccccc1 (centres unmarked) [Compound 1, 3-Benzyl-5-hydroxy-4,5,6,7-tetrahydroimidazo[4,5-e] [1,4]diazepin-8(3H)-one]
Stability under neutral conditions ([1]; neutral aqueous medium): quite unstable and decomposed; also recorded: decomposes in neutral aqueous medium over time

Ki ([2]; Ki): ~8 µM
Structure (SMILES): COC1CNC(=O)c2nc[nH]c2N1Cc1ccccc1 (centres unmarked) [Compound 9, 4-Benzyl-5-methoxy-4,5,6,7-tetrahydroimidazo[4,5-e][1,4]diazepin-8(3H)-one]

Structure (SMILES): O=C1NC(O)CNc2nc[nH]c21 (centres unmarked) [Azepinomycin]
IC50 [3]: ~5 µM

Km ([2]; read-out: KM of enzyme with guanine as substrate, 25 °C, pH 7.4): 5.5 µM
Structure (SMILES): Nc1nc2nc[nH]c2c(=O)[nH]1 [guanine, reference compound]
